One assay relates to SARS-CoV-2-NLuc. Put plainly: microbe, parasite or virus in culture. In kind it is cell-based, SARS Coronavirus 2.
The target of assay [1] is recombinant SARS-CoV-2 Main protease (Mpro) (Severe acute respiratory syndrome coronavirus 2 (2019-nCoV) (SARS-CoV-2), UniProt P0DTD1). Description: Cov Mpro Biochemical IC50 Assay. The note with it: recombinant SARS-CoV-2 Mpro 7.5 nM, fluorogenic peptide substrate 40 μM; read-out: MPro IC50.
The mark [2] stands for this setting: Severe acute respiratory syndrome coronavirus, 48 h, read-out: MPro EC50.
[3] abbreviates: Severe acute respiratory syndrome coronavirus, 48 h; read-out: MPro EC50.

Where two headings read alike, the source gives them in different places.

The source of these data is patent publication US20240116946A1 (Gilead Sciences, Inc., priority 2022, published 2024).

One may read the EC50 as the midpoint of the concentration-response curve. For orientation: IC50 means the point on the concentration scale where inhibition reaches its midpoint.

Consider `O=c1[nH]c2cc(-c3c(Cl)cccc3-c3cnn4c3OCCC4)sc2c(=O)n1-c1cncc2ccccc12` [Example 528], for which the EC50 in the assay with SARS-CoV-2-NLuc (setting [2]) stood at 7.22 nM. In addition, in assay [1], the IC50 was determined as 7.09 nM.
In the case of `O=c1[nH]c2cc(-c3c(Cl)cccc3-c3cnc4n3CCC4)sc2c(=O)n1-c1cncc2ccccc12` [Example 529], the EC50 in the assay with SARS-CoV-2-NLuc (setting [2]) was found to be 34.1 nM. The IC50 in assay [1] came to 8.44 nM.
With `N#Cc1ccccc1-c1cc2[nH]c(=O)n(-c3cncc4ccccc34)c(=O)c2s1` [Example 530, 2-(3-(isoquinolin-4-yl)-2,4-dioxo-1,2,3,4-tetrahydrothieno[3,2-d]pyrimidin-6-yl)benzonitrile], in the assay on SARS-CoV-2-NLuc (setting [2]), the EC50 worked out at 84.3 nM. The IC50 in assay [1] was found to be 12 nM.
Take `N#Cc1cnccc1-c1cc2[nH]c(=O)n(-c3cncc4ccccc34)c(=O)c2s1` [Example 531]: the EC50 in the assay on SARS-CoV-2-NLuc (setting [2]) was 518 nM. Also, the IC50 in assay [1] stood at 50 nM.
With `COc1ccc(C#N)c(-c2cc3[nH]c(=O)n(-c4cncc5ccccc45)c(=O)c3s2)c1` [Example 532, 2-(3-(isoquinolin-4-yl)-2,4-dioxo-1,2,3,4-tetrahydrothieno[3,2-d]pyrimidin-6-yl)-4-methoxybenzonitrile], the EC50 in the assay with SARS-CoV-2-NLuc (setting [2]) worked out at 17.4 nM. In addition, the IC50 in assay [1] was under 2.65 nM.
With `N#Cc1cc(F)ccc1-c1cc2[nH]c(=O)n(-c3cncc4ccccc34)c(=O)c2s1` [Example 534], the EC50 in the assay with SARS-CoV-2-NLuc (setting [2]) worked out at 80.5 nM. In addition, the IC50 in assay [1] was found to be 30.6 nM.
Taken in the same sequence, the figures for `N#Cc1ccncc1-c1cc2[nH]c(=O)n(-c3cncc4ccccc34)c(=O)c2s1` [Example 535] were 432 nM and 39.6 nM.
Take `COc1cccc(C#N)c1-c1cc2[nH]c(=O)n(-c3cncc4ccccc34)c(=O)c2s1` [Example 536]: the EC50 in the assay on SARS-CoV-2-NLuc (setting [2]) was determined as 46.4 nM. Further, in assay [1], the IC50 came out at 21.2 nM.
`COc1cc(-c2cc3[nH]c(=O)n(-c4cncc5ccccc45)c(=O)c3s2)c(C#N)cc1F` [Example 537]: the concentration for a half-maximal effect (EC50) in the assay with SARS-CoV-2-NLuc (setting [2]) worked out at 19.2 nM. Also, in assay [1], the IC50 was 6.15 nM.
As for `N#Cc1ncccc1-c1cc2[nH]c(=O)n(-c3cncc4ccccc34)c(=O)c2s1` [Example 538], the EC50 with SARS-CoV-2-NLuc (setting [2]) worked out at 826 nM. The IC50 in assay [1] is 59.8 nM.
In the case of `COc1ccc(-c2cc3[nH]c(=O)n(-c4cncc5ccccc45)c(=O)c3s2)c(C#N)c1` [Example 539], in the assay with SARS-CoV-2-NLuc (setting [2]), the EC50 was 675 nM. The IC50 in assay [1] amounted to 141 nM.
With `N#Cc1cc(F)c(F)cc1-c1cc2[nH]c(=O)n(-c3cncc4ccccc34)c(=O)c2s1` [Example 540], in the assay with SARS-CoV-2-NLuc (setting [2]), the EC50 was over 50000 nM. The half-maximal inhibitory concentration (IC50) in assay [1] came out at 911 nM.
On to `COc1cnc(C#N)c(-c2cc3[nH]c(=O)n(-c4cncc5ccccc45)c(=O)c3s2)c1` [Example 541], for which the EC50 in the assay on SARS-CoV-2-NLuc (setting [2]) worked out at 237 nM. For the same molecule, in assay [1], the IC50 turned out to be 17.6 nM.
Consider `COc1cc(-c2cc3[nH]c(=O)n(-c4cncc5ccccc45)c(=O)c3s2)c(C#N)cn1` [Example 542], for which the EC50 in the assay with SARS-CoV-2-NLuc (setting [2]) was 1200 nM. In assay [1], the IC50 came to 249 nM.
As for `COc1cc(-c2cc3[nH]c(=O)n(-c4cncc5cccnc45)c(=O)c3s2)c(C#N)cc1F` [Example 543], the EC50 in the assay with SARS-CoV-2-NLuc (setting [2]) is 240 nM. The IC50 in assay [1] is 9.91 nM.
As to `COc1cc(C#N)c(-c2cc3[nH]c(=O)n(-c4cncc5ccccc45)c(=O)c3s2)cc1OC` [Example 544], the concentration for a half-maximal effect (EC50) in the assay on SARS-CoV-2-NLuc (setting [2]) worked out at 202 nM. Also, in assay [1], the IC50 amounted to 16.8 nM.
The like results for `N#Cc1ccc(Cl)c(-c2cc3[nH]c(=O)n(-c4cncc5ccccc45)c(=O)c3s2)c1` [Example 545] were, in that order, 112 nM and 29.4 nM.
As for `Cc1ccc(C#N)cc1-c1cc2[nH]c(=O)n(-c3cncc4ccccc34)c(=O)c2s1` [Example 546], the EC50 with SARS-CoV-2-NLuc (setting [2]) came out at 164 nM. In assay [1], the IC50 turned out to be 15.4 nM.
As for `N#Cc1ccc(F)c(-c2cc3[nH]c(=O)n(-c4cncc5ccccc45)c(=O)c3s2)c1` [Example 547], the EC50 with SARS-CoV-2-NLuc (setting [2]) was over 1000 nM. In addition, the IC50 in assay [1] was 170 nM.
Regarding `Cc1cc(Cl)c(-c2cc3[nH]c(=O)n(-c4cncc5ccccc45)c(=O)c3s2)cc1C#N` [Example 548], the EC50 with SARS-CoV-2-NLuc (setting [2]) came out at 114 nM. The IC50 in assay [1] was 7.55 nM.
With `COc1cc(-c2cc3[nH]c(=O)n(-c4cncc5ccc(C(C)(C)O)cc45)c(=O)c3s2)c(Cl)cc1F` [Example 551, 6-(2-chloro-4-fluoro-5-methoxyphenyl)-3-(6-(2-hydroxypropan-2-yl)isoquinolin-4-yl)thieno[3,2-d]pyrimidine-2,4(1H,3H)-dione], the EC50 in the assay with SARS-CoV-2-NLuc (setting [2]) was found to be 23.6 nM. Also, the IC50 in assay [1] is 5.36 nM.
As for `COc1ccc(Cl)c(-c2cc3[nH]c(=O)n(-c4cncc5ccc(CO)cc45)c(=O)c3s2)c1` [Example 552, 6-(2-chloro-5-methoxyphenyl)-3-(6-(hydroxymethyl)isoquinolin-4-yl)thieno[3,2-d]pyrimidine-2,4(1H,3H)-dione], the EC50 in the assay with SARS-CoV-2-NLuc (setting [2]) was found to be 12.4 nM. Besides, the IC50 in assay [1] came out at 7.13 nM.
For `COc1cc(-c2cc3[nH]c(=O)n(-c4cncc5cccnc45)c(=O)c3s2)c(Cl)cc1F` [Example 553, 6-(2-chloro-4-fluoro-5-methoxy-phenyl)-3-(1,6-naphthyridin-8-yl)-1H-thieno[3,2-d]pyrimidine-2,4-dione], the EC50 in the assay with SARS-CoV-2-NLuc (setting [2]) was determined as 12 nM. In addition, in assay [1], the IC50 was 7.58 nM.
`Cc1cccc2cncc(-n3c(=O)[nH]c4cc(-c5ccccc5Cl)sc4c3=O)c12` [Example 558, 6-(2-chlorophenyl)-3-(5-methylisoquinolin-4-yl)thieno[3,2-d]pyrimidine-2,4(1H,3H)-dione]: the EC50 in the assay with SARS-CoV-2-NLuc (setting [2]) turned out to be 17.5 nM. In addition, the 50% inhibitory concentration (IC50) in assay [1] amounted to 3.39 nM.
The like results for `COc1ccc(Cl)c(-c2cc3[nH]c(=O)n(-c4cncc5cccc(C)c45)c(=O)c3s2)c1` [Example 559] were, in that order, 9.19 nM and 6.23 nM.
With `COc1cc(-c2cc3[nH]c(=O)n(-c4cncc5cccc(C)c45)c(=O)c3s2)c(Cl)cc1F` [Example 560], the EC50 in the assay on SARS-CoV-2-NLuc (setting [2]) was found to be 6.1 nM. For the same molecule, the IC50 in assay [1] is under 2.54 nM.
Consider `O=c1[nH]c2cc(-c3c(Cl)cccc3CC3CCOCC3)sc2c(=O)n1-c1cncc2ccccc12` [Example 561, 6-[2-chloro-6-(tetrahydropyran-4-ylmethyl)phenyl]-3-(4-isoquinolyl)-1H-thieno[3,2-d]pyrimidine-2,4-dione], for which the EC50 in the assay on SARS-CoV-2-NLuc (setting [2]) came to 177 nM. In addition, in assay [1], the IC50 worked out at 142 nM.
Turning to `COc1ccc2cncc(-n3c(=O)[nH]c4cc(-c5c(Cl)cccc5-c5cc(C)c6ncnn6c5)sc4c3=O)c2c1` [Example 562, 6-[2-chloro-6-(8-methyl-[1,2,4]triazolo[1,5-a]pyridin-6-yl)phenyl]-3-(6-methoxy-4-isoquinolyl)-1H-thieno[3,2-d]pyrimidine-2,4-dione], the EC50 with SARS-CoV-2-NLuc (setting [2]) worked out at 5.06 nM. The IC50 in assay [1] is under 2.54 nM.
Consider `COc1ccc2cncc(-n3c(=O)[nH]c4cc(-c5c(Cl)cccc5C5=CCOCC5)sc4c3=O)c2c1` [Example 563], for which the EC50 in the assay on SARS-CoV-2-NLuc (setting [2]) turned out to be 10 nM. Besides, the IC50 in assay [1] was 6.96 nM.
For `COc1ccc2cncc(-n3c(=O)[nH]c4cc(-c5c(Cl)cccc5-c5cn6ncnc6c6c5CCC6)sc4c3=O)c2c1` [Example 564], in the assay with SARS-CoV-2-NLuc (setting [2]), the EC50 came to 52.5 nM. The IC50 in assay [1] amounted to 14.6 nM.
`COc1ccc(Cl)c(-c2cc3[nH]c(=O)n(-c4cncc5ccc(C(=O)N6CCOCC6)cc45)c(=O)c3s2)c1` [Example 566, 6-(2-chloro-5-methoxy-phenyl)-3-[6-(morpholine-4-carbonyl)-4-isoquinolyl]-1H-thieno[3,2-d]pyrimidine-2,4-dione]: the EC50 in the assay with SARS-CoV-2-NLuc (setting [2]) was determined as 20.8 nM. Besides, in assay [1], the IC50 is 9.83 nM.
In the case of `Cn1nncc1-c1cccc(Cl)c1-c1ccc2c(=O)n(-c3cncc4ccccc34)c(=O)[nH]c2c1` [Example 567, 7-[2-chloro-6-(3-methyltriazol-4-yl)phenyl]-3-(4-isoquinolyl)-1H-quinazoline-2,4-dione], in the assay with SARS-CoV-2-NLuc (read-out: MPro EC50), the EC50 is 228 nM. For the same molecule, the IC50 in assay [1] amounted to 50.9 nM.
As to `COc1ccc(-c2cc(C)c3ncnn3c2)c(-c2ccc3c(=O)n(-c4cncc5ccccc45)c(=O)[nH]c3c2)c1` [Example 568, 3-(4-isoquinolyl)-7-[5-methoxy-2-(8-methyl-[1,2,4]triazolo[1,5-a]pyridin-6-yl)phenyl]-1H-quinazoline-2,4-dione], the EC50 in the assay with SARS-CoV-2-NLuc (setting [2]) is 2640 nM. For the same molecule, the IC50 in assay [1] came out at 5670 nM.
For the molecule `COc1ccc(Cl)c(-c2cc3[nH]c(=O)n(-c4cncc5ccc(N6CCOCC6=O)cc45)c(=O)c3s2)c1` [Example 573, 6-(2-chloro-5-methoxyphenyl)-3-(6-(3-oxomorpholino)isoquinolin-4-yl)thieno[3,2-d]pyrimidine-2,4(1H,3H)-dione], the EC50 in the assay on SARS-CoV-2-NLuc (setting [3]) was determined as 20.1 nM. The IC50 in assay [1] was 3.26 nM.
Regarding `COc1ccc(Cl)c(-c2cc3[nH]c(=O)n(-c4cncc5ccc(N6C(=O)COC[C@@H]6C)cc45)c(=O)c3s2)c1` [Example 574], the EC50 in the assay on SARS-CoV-2-NLuc (read-out: MPro EC50) was 18.5 nM. Also, in assay [1], the IC50 was found to be 6.37 nM.
As to `COc1ccc(Cl)c(-c2cc3[nH]c(=O)n(-c4cncc(CCC(=O)N5CCOCC5)c4)c(=O)c3s2)c1` [Example 575, 6-(2-chloro-5-methoxy-phenyl)-3-[5-(3-morpholino-3-oxo-propyl)-3-pyridyl]-1H-thieno[3,2-d]pyrimidine-2,4-dione], the EC50 with SARS-CoV-2-NLuc (setting [3]) was 235 nM. Besides, in assay [1], the IC50 was found to be 6.66 nM.
As for `O=c1[nH]c2cc(-c3ccccc3Cl)sc2c(=O)n1-c1cncc(C(F)(F)F)c1` [Example 576, 6-(2-chlorophenyl)-3-(5-(trifluoromethyl)pyridin-3-yl)thieno[3,2-d]pyrimidine-2,4(1H,3H)-dione], the EC50 in the assay with SARS-CoV-2-NLuc (setting [3]) was determined as 153 nM. Further, the IC50 in assay [1] amounted to 174 nM.
Taken in the same sequence, the figures for `CC(C)(C)c1cncc(-n2c(=O)[nH]c3cc(-c4ccccc4Cl)sc3c2=O)c1` [Example 577] were 12100 nM and over 50000 nM.
The like results for `O=c1[nH]c2cc(-c3ccccc3Cl)ccc2c(=O)n1-c1cncc(C(F)(F)F)c1` [Example 578] were, in that order, 9870 nM and over 50000 nM.
`CC(C)(C)c1cncc(-n2c(=O)[nH]c3cc(-c4ccccc4Cl)ccc3c2=O)c1` [Example 579]: in the assay on SARS-CoV-2-NLuc (setting [3]), the EC50 turned out to be 42600 nM. The IC50 in assay [1] was over 50000 nM.
